Results: patent publication US8952024B2, “Herbicidal pyrimidone derivatives” (E I du Pont de Nemours and Company, priority 2009, dated 2015)

Tests used:
Test in all cases: Test B pre-/postemergence plant response
Format in all cases: in vivo
[1] = system: yellow nutsedge (Cyperus esculentus)
Source text: (§1) Seeds of plant species selected from blackgrass (Alopecurus myosuroides), downy bromegrass (Bromus tectorum), green foxtail (Setaria viridis), Italian ryegrass (Lolium multiflorum), wheat (Triticum aestivum), wild oat (Avena fatua), deadnettle (henbit deadnettle, Lamium amplexicaule), galium (catchweed bedstraw, Galium aparine), bermudagrass (Cynodon dactylon), Surinam grass (Brachiaria decumbens), cocklebur (Xanthium strumarium), corn (Zea mays), large crabgrass (Digitaria sanguinalis), woolly cupgrass (Eriochloa villosa), giant foxtail (Setaria faberii), goosegrass (Eleusine indica), johnsongrass (Sorghum halepense), kochia (Kochia scoparia), lambsquarters (Chenopodium album), morningglory (Ipomoea coccinea), nightshade (eastern black nightshade, Solanum ptycanthum), yellow nutsedge (Cyperus esculentus), pigweed (Amaranthus retroflexus), ragweed (common ragweed, Ambrosia elatior), Russian thistle (Salsola kali), soybean (Glycine max), sunflower (common oilseed sunflower, Helianthus annuus) and velvetleaf (Abutilon theophrasti) were planted into a blend of loam soil and sand and treated preemergence with test compounds formulated in a non-phytotoxic solvent mixture which included a surfactant.
(§2) At the same time, plants selected from these crop and weed species and also winter barley (Hordeum vulgare), canarygrass (Phalaris minor), chickweed (Stellaria media) and windgrass (Apera spica-venti) were planted in pots containing Redi-Earth® planting medium (Scotts Company, 14111 Scottslawn Road, Marysville, Ohio 43041) comprising spaghnum peat moss, vermiculite, wetting agent and starter nutrients and treated with postemergence applications of some of the test chemicals formulated in the same manner. Plants ranged in height from 2 to 18 cm (1- to 4-leaf stage) for postemergence treatments.
(§3) Treated plants and controls were maintained in a greenhouse for 13 to 15 days, after which time all treated plants were visually evaluated and compared to controls. Plant response ratings, summarized in Table B, are based on a scale of 0 to 100 where 0 is no effect and 100 is complete control. A dash (-) response means no test result.

[2] = system: Italian ryegrass (Lolium multiflorum)
Source text: as §1, §2, §3

[3] = system: velvetleaf (Abutilon theophrasti)
Source text: as §1, §2, §3

[4] = system: bermudagrass (Cynodon dactylon)
Source text: as §1, §2, §3

[5] = system: morningglory (Ipomoea coccinea)
Source text: as §1, §2, §3

[6] = system: wheat (Triticum aestivum)
Source text: as §1, §2, §3

[7] = system: large crabgrass (Digitaria sanguinalis)
Source text: as §1, §2, §3

kochia (Kochia scoparia) = conditions: Postemergence; for Plant response rating, Kochia: scale 0 (no effect) to 100 (complete control); for Kochia plant response rating: 250 g ai/ha, scale 0 to 100
Source text: as §1, §2, §3

[8] = system: woolly cupgrass (Eriochloa villosa)
Source text: as §1, §2, §3

[9] = system: downy bromegrass (Bromus tectorum)
Source text: as §1, §2, §3

soybean (Glycine max) = system: soybean (Glycine max)
Source text: as §1, §2, §3

[10] = system: cocklebur (Xanthium strumarium)
Source text: as §1, §2, §3

[11] = 250 g ai/ha, Preemergence, 0 to 100 scale
[12] = Postemergence, 62 g ai/ha, scale 0 (no effect) to 100 (complete control), 13 to 15 days
[13] = Postemergence, 125 g ai/ha, visual rating after 13 to 15 days, scale 0 (no effect) to 100 (complete control)
[14] = Preemergence, 31 g ai/ha, scale 0 to 100 (0 no effect, 100 complete control)
[15] = Preemergence, 125 g ai/ha, 0 to 100 scale
[16] = Postemergence, 31 g ai/ha, scale 0 to 100 (0 no effect, 100 complete control)
[17] = Postemergence, 250 g ai/ha, scale 0 to 100
[18] = Preemergence, 62 g ai/ha, scale 0 to 100 (0 no effect, 100 complete control)
[19] = 125 g ai/ha, visual rating after 13 to 15 days

Cc1ccc(F)cc1-n1c(-c2ccccc2)ncc(C(=O)C2=C(O)CCCC2=O)c1=O [Compound 44]
Plant response rating, Nutsedge, Yellow [1, 11]: 90
Plant response rating, Nutsedge, Yellow [1, 12]: 50
Plant response rating, Nutsedge, Yellow [1, 13]: 50
Plant response rating, Nutsedge, Yellow [1, 14]: 45
Nutsedge, Yellow plant response rating [1, 15]: 75
Plant response rating, Ryegrass, Italian [2, 11]: 0
Plant response rating, Ryegrass, Italian [2, 12]: 5
Plant response rating, Ryegrass, Italian [2, 13]: 10
Plant response rating, Ryegrass, Italian [2, 14]: 0
Ryegrass, Italian plant response rating [2, 15]: 0
Plant response rating, Velvetleaf [3, 11]: 100
Plant response rating, Velvetleaf [3, 12]: 98
Plant response rating, Velvetleaf [3, 13]: 100
Plant response rating, Velvetleaf [3, 14]: 75
Velvetleaf plant response rating [3, 15]: 100
Plant response rating, Bermudagrass [4, 11]: 100
Plant response rating, Bermudagrass [4, 16]: 80
Plant response rating, Bermudagrass [4, 12]: 95
Plant response rating, Bermudagrass [4, 13]: 95
Bermudagrass plant response rating [4, 17]: 98
Plant response rating, Bermudagrass [4, 14]: 100
Plant response rating, Bermudagrass [4, 18]: 100
Bermudagrass plant response rating [4, 15]: 100
Plant response rating, Morningglory [5, 11]: 95
Plant response rating, Morningglory [5, 12]: 70
Plant response rating, Morningglory [5, 13]: 75
Plant response rating, Morningglory [5, 14]: 0
Plant response rating, Morningglory [5, 18]: 0
Morningglory plant response rating [5, 15]: 50
Plant response rating, Wheat [6, 11]: 0
Plant response rating, Wheat [6, 12]: 10
Plant response rating, Wheat [6, 13]: 30
Plant response rating, Wheat [6, 14]: 0
Wheat plant response rating [6, 15]: 0
Plant response rating, Crabgrass, Large [7, 11]: 100
Plant response rating, Crabgrass, Large [7, 16]: 85
Plant response rating, Crabgrass, Large [7, 12]: 90
Plant response rating, Crabgrass, Large [7, 13]: 95
Crabgrass, Large plant response rating [7, 17]: 98
Plant response rating, Crabgrass, Large [7, 14]: 65
Plant response rating, Crabgrass, Large [7, 18]: 75
Crabgrass, Large plant response rating [7, 15]: 100
Plant response rating, Kochia (kochia (Kochia scoparia); 62 g ai/ha, 13 to 15 days): 75
Plant response rating, Kochia (kochia (Kochia scoparia); [19]): 75
Kochia plant response rating (kochia (Kochia scoparia)): 95
Plant response rating, Cupgrass, Woolly [8, 11]: 85
Plant response rating, Cupgrass, Woolly [8, 16]: 80
Plant response rating, Cupgrass, Woolly [8, 12]: 80
Plant response rating, Cupgrass, Woolly [8, 13]: 85
Cupgrass, Woolly plant response rating [8, 17]: 95
Plant response rating, Cupgrass, Woolly [8, 14]: 0
Plant response rating, Cupgrass, Woolly [8, 18]: 45
Cupgrass, Woolly plant response rating [8, 15]: 80
Plant response rating, Bromegrass, Downy [9, 11]: 5
Plant response rating, Bromegrass, Downy [9, 16]: 40
Plant response rating, Bromegrass, Downy [9, 12]: 70
Plant response rating, Bromegrass, Downy [9, 13]: 80
Bromegrass, Downy plant response rating [9, 17]: 85
Plant response rating, Bromegrass, Downy [9, 14]: 0
Plant response rating, Bromegrass, Downy [9, 18]: 0
Bromegrass, Downy plant response rating [9, 15]: 0
Plant response rating, Soybean (soybean (Glycine max); [11]): 0
Plant response rating, Soybean (soybean (Glycine max); [12]): 95
Plant response rating, Soybean (soybean (Glycine max); [13]): 95
Plant response rating, Soybean (soybean (Glycine max); [14]): 0
Soybean plant response rating (soybean (Glycine max); [15]): 0
Plant response rating, Cocklebur [10, 11]: 45
Plant response rating, Cocklebur [10, 16]: 80
Plant response rating, Cocklebur [10, 12]: 80
Plant response rating, Cocklebur [10, 13]: 90
Cocklebur plant response rating [10, 17]: 98

Cc1cccc(Cl)c1-n1c(-c2ccccc2)ncc(C(=O)C2=C(O)CCCC2=O)c1=O [Compound 46]
Plant response rating, Nutsedge, Yellow [1, 11]: 90
Plant response rating, Nutsedge, Yellow [1, 12]: 70
Plant response rating, Nutsedge, Yellow [1, 13]: 70
Plant response rating, Nutsedge, Yellow [1, 14]: 25
Nutsedge, Yellow plant response rating [1, 15]: 80
Plant response rating, Ryegrass, Italian [2, 11]: 0
Plant response rating, Ryegrass, Italian [2, 12]: 5
Plant response rating, Ryegrass, Italian [2, 13]: 5
Plant response rating, Ryegrass, Italian [2, 14]: 0
Ryegrass, Italian plant response rating [2, 15]: 0
Plant response rating, Velvetleaf [3, 11]: 65
Plant response rating, Velvetleaf [3, 12]: 80
Plant response rating, Velvetleaf [3, 13]: 85
Plant response rating, Velvetleaf [3, 14]: 0
Velvetleaf plant response rating [3, 15]: 55
Plant response rating, Bermudagrass [4, 11]: 98
Plant response rating, Bermudagrass [4, 16]: 80
Plant response rating, Bermudagrass [4, 12]: 85
Plant response rating, Bermudagrass [4, 13]: 90
Bermudagrass plant response rating [4, 17]: 90
Plant response rating, Bermudagrass [4, 14]: 0
Plant response rating, Morningglory [5, 11]: 0
Plant response rating, Morningglory [5, 12]: 30
Plant response rating, Morningglory [5, 13]: 45
Plant response rating, Morningglory [5, 14]: 0
Plant response rating, Morningglory [5, 18]: 0
Morningglory plant response rating [5, 15]: 0
Plant response rating, Wheat [6, 11]: 0
Plant response rating, Wheat [6, 12]: 0
Plant response rating, Wheat [6, 13]: 0
Plant response rating, Wheat [6, 14]: 0
Wheat plant response rating [6, 15]: 0
Plant response rating, Crabgrass, Large [7, 11]: 98
Plant response rating, Crabgrass, Large [7, 16]: 60
Plant response rating, Crabgrass, Large [7, 12]: 65
Plant response rating, Crabgrass, Large [7, 13]: 75
Crabgrass, Large plant response rating [7, 17]: 75
Plant response rating, Crabgrass, Large [7, 14]: 45
Plant response rating, Crabgrass, Large [7, 18]: 75
Crabgrass, Large plant response rating [7, 15]: 85
Plant response rating, Kochia (kochia (Kochia scoparia); 62 g ai/ha, 13 to 15 days): 0
Plant response rating, Kochia (kochia (Kochia scoparia); [19]): 20
Kochia plant response rating (kochia (Kochia scoparia)): 30
Plant response rating, Cupgrass, Woolly [8, 11]: 60
Plant response rating, Cupgrass, Woolly [8, 16]: 10
Plant response rating, Cupgrass, Woolly [8, 12]: 20
Plant response rating, Cupgrass, Woolly [8, 13]: 25
Cupgrass, Woolly plant response rating [8, 17]: 45
Plant response rating, Cupgrass, Woolly [8, 14]: 10
Plant response rating, Cupgrass, Woolly [8, 18]: 45
Cupgrass, Woolly plant response rating [8, 15]: 50
Plant response rating, Bromegrass, Downy [9, 11]: 0
Plant response rating, Bromegrass, Downy [9, 16]: 0
Plant response rating, Bromegrass, Downy [9, 12]: 5
Plant response rating, Bromegrass, Downy [9, 13]: 10
Bromegrass, Downy plant response rating [9, 17]: 25
Plant response rating, Bromegrass, Downy [9, 14]: 0
Plant response rating, Bromegrass, Downy [9, 18]: 0
Bromegrass, Downy plant response rating [9, 15]: 0
Plant response rating, Soybean (soybean (Glycine max); [11]): 25
Plant response rating, Soybean (soybean (Glycine max); [12]): 80
Plant response rating, Soybean (soybean (Glycine max); [13]): 90
Plant response rating, Soybean (soybean (Glycine max); [14]): 0
Soybean plant response rating (soybean (Glycine max); [15]): 15
Plant response rating, Cocklebur [10, 11]: 15
Plant response rating, Cocklebur [10, 16]: 75
Plant response rating, Cocklebur [10, 12]: 80
Plant response rating, Cocklebur [10, 13]: 80
Cocklebur plant response rating [10, 17]: 90
Plant response rating, Cocklebur [10, 14]: 0
Plant response rating, Cocklebur [10, 18]: 0
Cocklebur plant response rating [10, 15]: 0
